Test results reported in article PMC5394527 (Journal of Medicinal Chemistry, 2017).
Where two headings read alike, the source gives them in different places. Each block holds one molecule with its values, some of them ahead of it.

What was measured:
[1] = test system: SJSA-1 osteosarcoma tumor xenograft; details: for weight loss of mice during the experiment: SJSA-1 xenograft experiment, 30 or 100 mg/kg daily for 14 days; for antitumor efficacy (regression): last line of Table 6, SJSA-1 xenograft model in mice; for antitumor activity in SJSA-1 xenograft model: mice
[2] = test system: p53 activation (MDM2, p53, p21, cleaved PARP, cleaved caspase-3) in SJSA-1 tumors; details: mice, single oral dose 100 mg/kg
MDM2 = MDM2 (Homo sapiens, UniProt Q00987)
Sequence of MDM2 (Q00987 whole entry): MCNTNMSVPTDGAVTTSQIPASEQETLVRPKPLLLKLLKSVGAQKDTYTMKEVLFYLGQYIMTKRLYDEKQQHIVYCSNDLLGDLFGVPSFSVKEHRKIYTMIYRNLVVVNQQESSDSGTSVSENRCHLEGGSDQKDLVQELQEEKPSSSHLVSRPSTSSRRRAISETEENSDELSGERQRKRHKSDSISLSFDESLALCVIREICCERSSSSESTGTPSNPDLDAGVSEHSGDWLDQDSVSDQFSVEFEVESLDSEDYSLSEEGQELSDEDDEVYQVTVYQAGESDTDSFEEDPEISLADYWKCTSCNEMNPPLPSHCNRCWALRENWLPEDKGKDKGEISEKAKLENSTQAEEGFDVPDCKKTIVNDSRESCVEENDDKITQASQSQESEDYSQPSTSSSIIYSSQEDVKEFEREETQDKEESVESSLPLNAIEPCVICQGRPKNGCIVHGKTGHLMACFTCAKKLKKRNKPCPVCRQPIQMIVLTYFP

SJSA-1 cancer cell line [3] = details: cited from earlier work
[4] = test system: SJSA-1 osteosarcoma tumor xenograft; details: mice; cited from earlier work
[5] = cited from earlier work
[6] = test system: RS4;11 acute lymphoblastic leukemia xenograft; details: for antitumor activity in RS4;11 xenograft model: mice
SJSA-1 cancer cell line [7] = assay: cells; details: Homo sapiens, SJSA-1, read-out: SJSA-1 IC50, cell growth inhibition
[8] = oral gavage 100 mg/kg daily for 14 days
[9] = oral 30 mg/kg daily for 14 days

Compound: O=C(NC12CCC(C(=O)O)(CC1)CC2)[C@@H]1NC2(CCC(F)(F)CC2)[C@@]2(C(=O)Nc3cc(Cl)ccc32)[C@H]1c1cccc(Cl)c1F [Compound 57, 4-((3′R,4′S,5′R)-6″-Chloro-4′-(3-chloro-2-fluorophenyl)-4,4-difluoro-2″-oxodispiro[cyclohexane-1,2′-pyrrolidine-3′,3″-indoline]-5′-carboxamido)bicyclo[2.2.2]octane-1-carboxylic Acid]
- apoptosis induction (cleavage of PARP and caspase-3) in SJSA-1 xenograft tumor tissue [2]: modest effect on activation of p53 and induction of cleavage of PARP and caspase-3

Compound: CC(C)(C)C[C@@H]1N[C@@H](C(=O)N[C@H]2CC[C@H](O)CC2)[C@H](c2cccc(Cl)c2F)[C@]12C(=O)Nc1cc(Cl)ccc12 [Compound 2, reference compound]
- antitumor activity in SJSA-1 xenograft model [1, 8]: complete tumor regression
- purity retained (in solutions after 7 days (slow isomerization)): 93–96%
- apoptosis induction (cleavage of PARP and caspase-3) in SJSA-1 xenograft tumor tissue [2]: induce strong apoptosis
- p53 activation (MDM2, p53, p21 levels) in SJSA-1 xenograft tumor tissue [2]: robust activation of p53

Compound: O=C(O)[C@@H]1NC2(CCCCC2)[C@@]2(C(=O)Nc3cc(Cl)ccc32)[C@H]1c1cccc(Cl)c1F [Compound 29]
- IC50 (SJSA-1 cancer cell line [3]; read-out: SJSA-1 IC50, cell growth inhibition): > 10000 nM

Compound: O=C(N[C@H]1CC[C@H](O)CC1)[C@@H]1NC2(CCCCC2)[C@@]2(C(=O)Nc3cc(Cl)ccc32)[C@H]1c1cccc(Cl)c1F [Compound 6, (3′R,4′S,5′R)-6″-Chloro-4′-(3-chloro-2-fluorophenyl)-N-((1r,4R)-4-hydroxycyclohexyl)-2″-oxodispiro[cyclohexane-1,2′-pyrrolidine-3′,3″-indoline]-5′-carboxamide]
- antitumor activity in SJSA-1 xenograft model [4]: strong tumor growth inhibition but not complete tumor regression
- decomposition (after 2 days in cell culture media, UPLC): < 1%
- IC50 (SJSA-1 cancer cell line [3]; read-out: SJSA-1 cell growth inhibition IC50): 190 nM

Compound: O=C(O)c1ccc(NC(=O)[C@@H]2NC3(CCCCC3)[C@@]3(C(=O)Nc4cc(Cl)ccc43)[C@H]2c2cccc(Cl)c2F)cc1 [Compound 39]
- antitumor activity in SJSA-1 xenograft model [4]: partial tumor regression
- stability in solution [5]: very stable in solution

Compound: CC1(C)CCC2(CC1)N[C@@H](C(=O)Nc1ccc(C(=O)O)cc1)[C@H](c1cccc(Cl)c1F)[C@]21C(=O)Nc2cc(Cl)ccc21 [Compound 54, 4-((3′R,4′S,5′R)-6″-Chloro-4′-(3-chloro-2-fluorophenyl)-4,4-dimethyl-2″-oxodispiro[cyclo-hexane-1,2'-pyrrolidine-3′,3″-indoline]-5'-carboxamido)benzoic Acid]
- antitumor efficacy (regression) [1]: 87% regression
- antitumor activity in SJSA-1 xenograft model ([1]; oral gavage 50 mg/kg daily for 14 days): effectively retards tumor growth

Compound: CCN1[C@@H](C(=O)NC23CCC(C(=O)O)(CC2)CC3)[C@H](c2cccc(Cl)c2F)[C@]2(C(=O)Nc3cc(Cl)ccc32)C12CCCCC2 [Compound 60, 4-((3′R,4′S,5′R)-6″-Chloro-4′-(3-chloro-2-fluorophenyl)-1′-ethyl-2″-oxodispiro[cyclohexane-1,2′-pyrrolidine-3′,3″-indoline]-5′-carboxamido)bicyclo[2.2.2]octane-1-carboxylic Acid]
- weight loss of mice during the experiment [1]: no or minimal weight loss
- antitumor activity in SJSA-1 xenograft model [1, 9]: effectively inhibits tumor growth
- antitumor activity in SJSA-1 xenograft model [1, 8]: complete and long-lasting tumor regression
- chemical stability in solutions (1:1 CH3CN/H2O, 1:1 MeOH/H2O, cell culture media, 7 days): very stable in solutions for a period of 7 days
- persistence of p53 activation in SJSA-1 xenograft tumor tissue [2]: 24 h
- antitumor activity in RS4;11 xenograft model ([6]; 200 mg/kg weekly dosing for 3 weeks): partial tumor regression
- tolerability in RS4;11 xenograft experiment ([6]; mice, 50, 75, 100 mg/kg daily or 200 mg/kg weekly): well tolerated at all doses and schedules
- antitumor activity in RS4;11 xenograft model ([6]; oral 100 mg/kg daily for 14 days): partial tumor regression

Compound: CS(=O)(=O)NC(=O)C12CCC(NC(=O)[C@@H]3NC4(CCCCC4)[C@@]4(C(=O)Nc5cc(Cl)ccc54)[C@H]3c3cccc(Cl)c3F)(CC1)CC2 [Compound 58, (3′R,4′S,5′R)-6″-Chloro-4′-(3-chloro-2-fluorophenyl)-N-(4-((methylsulfonyl)carbamoyl)-bicyclo[2.2.2]octan-1-yl)-2″-oxodispiro[cyclohexane-1,2′-pyrrolidine-3′,3″-indoline]-5′-carboxamide]
- apoptosis induction (cleavage of PARP and caspase-3) in SJSA-1 xenograft tumor tissue [2]: modest effect on activation of p53 and induction of cleavage of PARP and caspase-3

Second part, led by results:

- weight loss of mice during the experiment [1]: no or minimal weight loss
Compound: O=C(NC12CCC(C(=O)O)(CC1)CC2)[C@@H]1NC2(CCCCC2)[C@@]2(C(=O)Nc3cc(Cl)ccc32)[C@H]1c1cccc(Cl)c1F [Compound 56, 4-((3′R,4′S,5′R)-6″-Chloro-4′-(3-chloro-2-fluorophenyl)-2″-oxodispiro[cyclohexane-1,2′-pyrrolidine-3′,3″-indoline]-5′-carboxamido)bicyclo[2.2.2]octane-1-carboxylic Acid]
- antitumor efficacy (regression) [1]: no regression
- apoptosis induction (cleavage of PARP and caspase-3) in SJSA-1 xenograft tumor tissue [2]: no cleavage of PARP and caspase-3

- no appreciable binding to MDM2 up to (MDM2): > 2 µM
Compound: CNC(=O)[C@@H]1NC2(CCNCC2)[C@@]2(C(=O)Nc3cc(Cl)ccc32)[C@H]1c1cccc(Cl)c1F [Compound 8, (3R,4′S,5′R)-6-Chloro-4′-(3-chloro-2-fluorophenyl)-N-methyl-2-oxodispiro[indoline-3,3′-pyrrolidine-2′,4″-piperidine]-5′-carboxamide]

- weight loss of mice during the experiment [1]: no or minimal weight loss
Compound: CN1[C@@H](C(=O)NC23CCC(C(=O)O)(CC2)CC3)[C@H](c2cccc(Cl)c2F)[C@]2(C(=O)Nc3cc(Cl)ccc32)C12CCCCC2 [Compound 59, 4-((3′R,4′S,5′R)-6″-Chloro-4′-(3-chloro-2-fluorophenyl)-1′-methyl-2″-oxodispiro[cyclohexane-1,2′-pyrrolidine-3′,3″-indoline]-5′-carboxamido)bicyclo[2.2.2]octane-1-carboxylic Acid]
- antitumor activity in SJSA-1 xenograft model [1, 9]: effectively inhibits tumor growth
- antitumor activity in SJSA-1 xenograft model [1, 8]: complete and long-lasting tumor regression
- persistence of p53 activation in SJSA-1 xenograft tumor tissue [2]: 24 h

- IC50 (SJSA-1 cancer cell line [7]): > 2000 nM
Compound: CN1[C@@H](c2nc(CC(=O)O)cs2)[C@H](c2cccc(Cl)c2F)[C@]2(C(=O)Nc3cc(Cl)ccc32)C12CCCCC2 [Compound 27, 2-(2-((3′R,4′S,5′R)-6″-Chloro-4′-(3-chloro-2-fluorophenyl)-1′-methyl-2″-oxodispiro[cyclohexane-1,2′-pyrrolidine-3′,3″-indolin]-5′-yl)thiazol-4-yl)acetic Acid]

- stability in solution (CH3CN/H2O, MeOH/H2O or cell culture media, 2 days): can decompose in solution
Compound: O=C(N[C@H]1CC[C@H](C(=O)O)CC1)[C@@H]1NC2(CCCCC2)[C@@]2(C(=O)Nc3cc(Cl)ccc32)[C@H]1c1cccc(Cl)c1F [Compound 33, (1R,4r)-4-((3′R,4′S,5′R)-6″-Chloro-4′-(3-chloro-2-fluorophenyl)-2″-oxodispiro[cyclohexane-1,2′-pyrrolidine-3′,3″-indoline]-5′-carboxamido)cyclohexane-1-carboxylic Acid]
- antitumor activity in SJSA-1 xenograft model [1, 8]: effectively retard tumor growth, it failed to achieve tumor regression
